Target: T1, Integrin-linked kinase (ILK) (Homo sapiens, UniProt Q13418)
T1 sequence (Q13418 1-452): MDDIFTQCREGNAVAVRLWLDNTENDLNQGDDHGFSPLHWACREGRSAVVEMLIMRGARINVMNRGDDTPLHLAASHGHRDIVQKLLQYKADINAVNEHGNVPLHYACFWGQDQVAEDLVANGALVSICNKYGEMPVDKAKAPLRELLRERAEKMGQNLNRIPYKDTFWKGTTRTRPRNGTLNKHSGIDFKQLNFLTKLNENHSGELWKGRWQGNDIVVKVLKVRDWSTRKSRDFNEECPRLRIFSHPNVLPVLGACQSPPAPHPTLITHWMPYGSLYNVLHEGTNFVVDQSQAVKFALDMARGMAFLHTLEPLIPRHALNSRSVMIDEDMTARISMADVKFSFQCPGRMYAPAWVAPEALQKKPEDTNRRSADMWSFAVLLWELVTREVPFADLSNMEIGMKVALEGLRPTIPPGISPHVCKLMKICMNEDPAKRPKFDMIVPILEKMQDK
Test: SPR (Biacore X-100, ILK immobilized on CM5 chip by amine coupling, Cpd22 […])
Type: binding

CNC(=O)CCc1cc(-c2ccc(-c3ccc(C(F)(F)F)cc3)cc2)n(-c2ccc(N3CCNCC3)cc2)n1 [Cpd22]
Kd: ~592 µM
